The text below walks through data of patent publication US6228985A, “Derivatives of aminobenzoic and aminobiphenylcarboxylic acids useful as anti-cancer agents” (Schering Corporation, priority 1998, dated 2001).

Experiment [1] addresses T1, uPAR (Homo sapiens, UniProt Q03405).
T1 construct: these cells express high levels of unoccupied uPA receptors; endogenous in cells; host or cells: DU-145 human prostate cancer cells (intact cells, harvested with trypsin/EDTA)
In words: cell-based, competition radioligand binding assay (specific binding of c-[125I-Tyr24]-ATFp to DU-145 cells). Particulars: radioligand c-[125I-Tyr24]-ATFp 3 nM (1.5 Kd), 4° C. for 90 min, duplicate tubes, 2-3 independent experiments. How it is done: The following assay procedure, which is a cell-based, competition radioligand binding assay, was carried out to determine the activity of the foregoing compounds as uPAR antagonists.
Radioligand Preparation. The minimal receptor-binding sequence of uPA was determined by Apella et al., J. Biol. Chem. 262:4437-4440 (1987), utilizing non-radioactive peptides as competition for a larger uPA radioligand. Our assay was developed and characterized using an iodinated version of the minimal receptor binding sequence of human uPA (residues 12-32, Ala^19). The 21-amino acid peptide (cyclized), referred to herein as "c-ATFp", was synthesized and iodinated as follows: 10 ug of c-ATFp was iodinated with 1 mCi Na^125 I, using the Chloramine-T method (Iodo-Beads, Pierce Chemical Co.); iodinated peptide was separated from unincorporated iodine with Sep-Pak C18 cartridges (Millipore), and the C18-bound peptide was eluted with acetonitrile. This procedure routinely yielded a radioiodinated c-ATFp (c-[^125 I-Tyr^24 ]-ATFp) with specific activity of 105 Ci/mmol: [drawing 101]
Determination of Radioligand Binding. DU-145, a human prostate cancer cell line, was selected for radioligand binding assays because these cells express high levels of unoccupied uPA receptors (approximately 500,000 receptors/cell). Subconfluent, 2 day cultures of DU-145 cells were prepared for radioligand binding assays by harvesting monolayers with trypsin/EDTA. The cells were washed one time with serum-free Dulbecco's Modified Eagle Medium (DMEM), and suspended at a cell density of 250,000 cells/ml in ice-cold DME containing 0.1% bovine serum albumin. Test compounds were solubilized in DMSO at 2 mg/ml and subsequently diluted in phosphate buffered saline to prepare stock concentrations of 200 ug/ml, 20 ug/ml, 2 ug/ml, 0.2 ug/ml, and 0.02 ug/ml. The binding reactions were initiated by addition of 1.0 ml cell suspension to microcentrifuge tubes containing 10 ul of: the indicated test compound solutions, or appropriately diluted DMSO controls, and c-[^25 ]-Tyr^24 ]-ATFp, such that the final concentration of radioligand was 3 nM (1.5 Kd). To control for specific binding, parallel reaction tubes were prepared containing 1,000-fold excess unlabeled c-ATFp. Reaction tubes were incubated with rocking at 4° C. for 90 min. Binding was terminated by 4° C. centrifugation at 800× g for 1 min in a refrigerated microcentrifuge. Unbound radioligand was removed by aspirating the reaction medium, adding fresh, ice-cold DMEM, 0.1% bovine serum albumin to the pelleted cells, and then quickly re-centrifuging and aspirating the wash from the cell pellet. The washing steps were completed in 2-4 minutes by this method, depending on the number of tubes in each experiment. Tips of microcentrifuge tubes containing the cell pellets were snipped and transferred to counting tubes. Radioactivity bound to the cells was determined in a gamma counter.
Specific binding of the radioligand was calculated as the difference between the amount of c-[^125 I-Tyr^24 ]-ATFp bound in the absence (total binding) and presence (non-specific binding) of the unlabeled c-ATFp. The efficacy of test compounds for inhibiting specific binding of c-[^125 I-Tyr^24 ]-ATFp was determined by plotting a graph of specific binding (y-axis) as a function of test compound concentration (x-axis). The concentration of test compound required to inhibit 50% of the specific binding (lC50) was determined from the plot. The IC50 may be directly converted mathematically to Ki, which is a measure of the receptor binding affinity of the compounds under the defined assay conditions. Test compounds were evaluated in duplicate tubes, in 2-3 independent binding experiments.

Experiment [2] deals with uPA:uPAR interaction. The note with it: cited from earlier work.
Experiment [3] has as its target uPAR. The note with it: cited from earlier work.

In general, IC50 refers to the concentration needed to halve the response being measured. Read a high IC50 as weaker potency.

T1 sequence (Q03405 23-335): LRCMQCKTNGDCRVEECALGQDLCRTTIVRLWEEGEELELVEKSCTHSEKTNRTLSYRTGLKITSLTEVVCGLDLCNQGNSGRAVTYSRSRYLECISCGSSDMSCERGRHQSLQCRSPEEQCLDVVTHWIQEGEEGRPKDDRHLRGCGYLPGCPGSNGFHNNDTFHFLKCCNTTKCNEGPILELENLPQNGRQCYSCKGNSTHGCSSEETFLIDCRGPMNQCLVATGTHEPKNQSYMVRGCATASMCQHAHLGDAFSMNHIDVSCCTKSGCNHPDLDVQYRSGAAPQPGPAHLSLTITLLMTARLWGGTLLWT

`O=C(Cc1c[nH]c2ccccc12)Nc1ccc(-c2ccc(C(=O)N[C@@H](Cc3ccccc3)C(=O)O)cc2)cc1` [Example 8-A] came in with an IC50 in experiment [1] of 20 nM.

In experiment [1], `O=C(N[C@@H](Cc1c[nH]c2ccccc12)C(=O)Nc1ccc(-c2ccc(C(=O)N[C@@H](Cc3ccccc3)C(=O)O)cc2)cc1)OCC1c2ccccc2-c2ccccc21` [Example 8-D] came in with a concentration for half-maximal inhibition (IC50) of 190 nM. Compared with the last compound, the IC50 is about 9.5-fold higher.

Compound `O=C(N[C@@H](Cc1c[nH]c2ccccc12)C(=O)Nc1ccc(-c2ccc(C(=O)N[C@@H](Cc3c[nH]c4ccccc34)C(=O)O)cc2)cc1)OCC1c2ccccc2-c2ccccc21` [Example 8-E] returned a half-maximal inhibitory concentration (IC50) in experiment [1] of 310 nM. This IC50 is about 1.6-fold higher than that of the compound before.

As for `CC(=O)N[C@@H](Cc1c[nH]c2ccccc12)C(=O)Nc1ccc(-c2ccc(C(=O)NCCC(=O)O)cc2)cc1` [Example 8-F], the IC50 in experiment [1] is 0.9 nM. This IC50 is about 340-fold lower than that of the compound before.

As for `CC(=O)N[C@H](Cc1c[nH]c2ccccc12)C(=O)Nc1ccc(-c2ccc(C(=O)NCCC(=O)O)cc2)cc1` [Example 8-G], in experiment [1], the 50% inhibitory concentration (IC50) came to 18 nM.

The compound `CC(=O)N[C@@H](Cc1c[nH]c2ccccc12)C(=O)Nc1ccc(-c2ccc(C(=O)N[C@@H](Cc3ccccc3)C(=O)O)cc2)cc1` [Example 8-J] showed a concentration for half-maximal inhibition (IC50) in experiment [1] of 1.8 nM.

The compound `CC(=O)N[C@H](Cc1c[nH]c2ccccc12)C(=O)Nc1ccc(-c2ccc(C(=O)N[C@@H](Cc3ccccc3)C(=O)O)cc2)cc1` [Example 8-K] came in with an IC50 in experiment [1] of 4 nM.

The compound `CC(=O)N[C@@H](Cc1c[nH]c2ccccc12)C(=O)Nc1ccc(-c2ccc(C(=O)N[C@H](Cc3ccccc3)C(=O)O)cc2)cc1` [Example 8-L] came in with an IC50 in experiment [1] of 8 nM.

Compound `CC(=O)N[C@@H](Cc1c[nH]c2ccccc12)C(=O)Nc1ccc(C(=O)N[C@@H](Cc2ccccc2)C(=O)O)cc1` [Example 8-M] returned an IC50 in experiment [1] of 28 nM.

As to `CC(=O)N[C@@H](Cc1c[nH]c2ccccc12)C(=O)Nc1cccc(-c2ccc(C(=O)N[C@@H](Cc3ccccc3)C(=O)O)cc2)c1` [Example 8-N], in experiment [1], the half-maximal inhibitory concentration (IC50) stood at 0.8 nM. This IC50 is about 35-fold lower than that of the compound before.

`CC(=O)N[C@@H](Cc1c[nH]c2ccccc12)C(=O)Nc1ccc(-c2cccc(C(=O)N[C@@H](Cc3ccccc3)C(=O)O)c2)cc1` [Example 8-O]: in experiment [1], the IC50 turned out to be 167 nM.

Compound `CC(=O)N[C@@H](Cc1c[nH]c2ccccc12)C(=O)NCc1ccccc1-c1ccc(C(=O)N[C@@H](Cc2ccccc2)C(=O)O)cc1` [Example 8-P] had an IC50 in experiment [1] of 70 nM.

`CC(=O)N[C@@H](Cc1ccccc1)C(=O)Nc1ccc(-c2ccc(C(=O)N[C@@H](Cc3ccccc3)C(=O)O)cc2)cc1` [Example 8-Q] came in with a half-maximal inhibitory concentration (IC50) in experiment [1] of 18 nM.

Turning to `CC(=O)N[C@@H](Cc1c[nH]c2ccccc12)C(=O)Nc1ccc(-c2ccc(C(=O)O)cc2)cc1` [Example 8-R], in experiment [1], the IC50 stood at 1500 nM.

`O=C(O)C[C@H](NC(=O)c1ccc(-c2ccc(NC(=O)[C@H](Cc3c[nH]c4ccccc34)NC(=O)OCC3c4ccccc4-c4ccccc43)cc2)cc1)C(=O)O` [Example 9-C] came in with an IC50 in experiment [1] of 300 nM.

In the case of `CC(=O)N[C@@H](Cc1c[nH]c2ccccc12)C(=O)Nc1ccc(-c2ccc(C(=O)N[C@@H](CC(=O)O)C(=O)O)cc2)cc1` [Example 9-H], the IC50 in experiment [1] came to 60 nM.

Consider `CC(=O)N[C@H](Cc1c[nH]c2ccccc12)C(=O)Nc1ccc(-c2ccc(C(=O)N[C@@H](CC(=O)O)C(=O)O)cc2)cc1` [Example 9-I], for which, in experiment [1], the IC50 was found to be 17 nM.

The compound `CC(=O)N[C@@H](CCC(N)=O)C(=O)Nc1ccc(-c2ccc(C(=O)N[C@@H](Cc3ccccc3)C(=O)O)cc2)cc1` [Example 9-S] yielded an IC50 in experiment [1] of 6 nM.

As to `CC(=O)N[C@@H](Cc1c[nH]c2ccccc12)C(=O)Nc1ccc(-c2ccc(C(=O)N[C@@H](Cc3ccc(O)cc3)C(=O)O)cc2)cc1` [Example 9-T], in experiment [1], the concentration for half-maximal inhibition (IC50) was determined as 3 nM.

With `CC(=O)N[C@@H](Cc1c[nH]c2ccccc12)C(=O)Nc1ccc(-c2ccc(C(=O)N[C@@H](Cc3ccccc3)C(N)=O)cc2)cc1` [Example 10-U], in experiment [1], the IC50 worked out at 44 nM.

In experiment [1], `CC(=O)N[C@@H](Cc1c[nH]c2ccccc12)C(=O)Nc1ccc(-c2ccc(C(=O)N[C@@H](CC(=O)O)C(N)=O)cc2)cc1` [Example 10-V] returned an IC50 of 1.3 nM.

In turn, `CC(=O)N[C@@H](Cc1c[nH]c2ccccc12)C(=O)Nc1ccc(-c2ccc(C(=O)NCCc3ccccc3)cc2)cc1` [Example 11-W] displayed an IC50 in experiment [1] of 355 nM. This IC50 is about 270-fold higher than that of the compound before.

`CC(=O)N[C@@H](Cc1c[nH]c2ccccc12)C(=O)Nc1ccc(-c2ccc(C(N)=O)cc2)cc1` [Example 12-Y] had a half-maximal inhibitory concentration (IC50) in experiment [1] of 91 nM.

In the case of `Cc1ccc(C(=O)Nc2ccc(S(=O)(=O)O)c3cc(S(=O)(=O)O)cc(S(=O)(=O)O)c23)cc1NC(=O)c1cccc(NC(=O)Nc2cccc(C(=O)Nc3cc(C(=O)Nc4ccc(S(=O)(=O)O)c5cc(S(=O)(=O)O)cc(S(=O)(=O)O)c45)ccc3C)c2)c1` [suramin], the “inhibition of the uPA:uPAR interaction” value in experiment [2] is “inhibit the uPA:uPAR interaction”.

Take “uPA,12-32: The critical domain alone (uPA,12-32); residues 12-32 of the EGF-like domain of uPA (DCLNGGTCVSNKYFSNIHWCN; UniProt P00749 32-52, looked up, fragment)”: in experiment [3] (critical domain alone (uPA,12-32), read-out: affinity), the Kd is 40 nM. For the same compound, the “affinity relative to intact ATF (fold less)” value in experiment [3] (less than intact ATF) is reported as “about 100 fold”.
